The numbers were not newly measured in patent publication US9095607B2, “Gel for topical application of clove essential oil with broad spectrum anti-inflammatory action and method of preparing same” (priority 2013, dated 2015), which cites them from elsewhere.

Series [1] concerns NF-kB.
Series [2] relates to kinin B1 receptors.
In series [3] the test system is neutrophil migration.

For the compound `C/C1=C\CC/C(C)=C/CC(C)(C)/C=C/C1` [Alpha-humulene], the “LPS-induced NF-kB activation” value in series [1] was “inhibit”. In addition, the “in vivo up-regulation of kinin B1 receptors” value in series [2] was “ability to prevent”. Also, the LPS-induced neutrophil migration result in series [3] is “inhibit”.

For `C=C1CC/C=C(\C)CC[C@@H]2[C@@H]1CC2(C)C` [Beta-caryophyllene], the “LPS-induced NF-kB activation” value in series [1] is “inhibit”. In series [3], the LPS-induced neutrophil migration entry is listed as “inhibit”.
